The source of these data is PubChem BioAssay (NCI).

SMILES strings stand for the structures.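 How tested: cells in 96-well plates exposed to compound for 48 hours at five concentrations. Definition used: TGI = concentration required for complete inhibition of growth.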 Some results are limits rather than exact numbers.

Some test systems named below: RXF-631 renal; DMS 114 small cell lung; M19-MEL melanoma; SNB-78 CNS; 786-0 renal; P388/ADR leukemia; P388 leukemia; SN12K1 renal; LXFL 529 NSCLC.
Common to all, as to experiment: NCI tumour cell line growth inhibition, 48 h

`COc1cc(C2C(C(=O)O)=C(COC(C)=O)Oc3cc4c(cc32)OCO4)cc(OC)c1OC` (stereo unspecified): the TGI in the experiment on RXF-631 renal, in the experiment with DMS 114 small cell lung, in the experiment on M19-MEL melanoma and with SNB-78 CNS was over 100 µM throughout.
As to `N=C(N)SCc1ccc(Cl)cc1Cl` (tested in a mixture with another compound), the TGI in the experiment on 786-0 renal was 26.9 µM.
Turning to `CC(C)C1=CCC2C(=C1)CCC1C(C)(C(=O)O)CCCC21C` (stereo unspecified) (tested in a mixture with another compound), in the experiment with 786-0 renal, the TGI was over 100 µM.
As for `O=C(O)c1cn2c3c(cc(N4CCN(CCO)CC4)cc3c1=O)SCC2`, the TGI with DMS 114 small cell lung, in the experiment on P388/ADR leukemia, in the experiment on M19-MEL melanoma, in the experiment with SNB-78 CNS, in the experiment with P388 leukemia and in the experiment on SN12K1 renal was over 100 µM throughout.
For the compound `CNC(=O)N(C)COC`, the TGI in the experiment on DMS 114 small cell lung, in the experiment with M19-MEL melanoma, in the experiment on LXFL 529 NSCLC and in the experiment with SNB-78 CNS was over 100 µM throughout.
On to `Cc1c2cnccc2c(C)c2c1c1ccccc1n2CCCCCCNCc1ccccc1`, for which the TGI with DMS 114 small cell lung came to 3.94 µM; with M19-MEL melanoma, 3.95 µM; with SNB-78 CNS, 5.08 µM; in the experiment with P388 leukemia it was 0.732 µM; in the experiment with SN12K1 renal, 1.9 µM.
